Target: Diacylglycerol kinase zeta (Homo sapiens, UniProt Q13574)
Assay: Evaluation of DGKdelta Inhibitory Effect
Protocol: To a 384-well plate (Greiner Bio-One Co., Ltd.), 3 μL of a DGK ξ enzyme dissolved in an assay buffer (40 mM Tris-HCl pH 7.5, 10 mM MgCl2, 1 mM dithiothreitol (DTT) and 0.1 mg/mL bovine serum albumin (BSA)) (90 ng/mL) was added, and 3 μL of the test compound diluted with the same assay buffer was added so that an intended final concentration was obtained. The mixture was left standing at room temperature for 15 minutes, 3 μL of a substrate (150 μM 1-oleoyl-2-acetyl-sn-glycerol (Sigma-Aldrich Co. LLC), 480 μM phosphatidylserine (Avanti, Inc.) and 150 μM UltraPure-ATP (attached to ADP-Glo)) was then added, and the mixture was left standing at room temperature for 30 minutes to react. Thereafter, 3 μL of an ADP-Glo Reagent was added, and the mixture was left standing at room temperature for 40 minutes to stop the enzyme reaction. Further, 6 μL of a Kinase-Detection Reagent was added, the mixture was left standing at room temperature for 30 minutes, and the luminescence was then measured using ARVO X3 (PerkinElmer, Inc.). The half maximal inhibitory concentration (IC50) was calculated by Sigmoid-Emax model non-linear regression analysis, where the signal value in solvent treatment was set to 0% inhibition and the signal value without addition of the DGK ξ enzyme was set to 100% inhibition.

Sequence of Diacylglycerol kinase zeta (Q13574 whole entry): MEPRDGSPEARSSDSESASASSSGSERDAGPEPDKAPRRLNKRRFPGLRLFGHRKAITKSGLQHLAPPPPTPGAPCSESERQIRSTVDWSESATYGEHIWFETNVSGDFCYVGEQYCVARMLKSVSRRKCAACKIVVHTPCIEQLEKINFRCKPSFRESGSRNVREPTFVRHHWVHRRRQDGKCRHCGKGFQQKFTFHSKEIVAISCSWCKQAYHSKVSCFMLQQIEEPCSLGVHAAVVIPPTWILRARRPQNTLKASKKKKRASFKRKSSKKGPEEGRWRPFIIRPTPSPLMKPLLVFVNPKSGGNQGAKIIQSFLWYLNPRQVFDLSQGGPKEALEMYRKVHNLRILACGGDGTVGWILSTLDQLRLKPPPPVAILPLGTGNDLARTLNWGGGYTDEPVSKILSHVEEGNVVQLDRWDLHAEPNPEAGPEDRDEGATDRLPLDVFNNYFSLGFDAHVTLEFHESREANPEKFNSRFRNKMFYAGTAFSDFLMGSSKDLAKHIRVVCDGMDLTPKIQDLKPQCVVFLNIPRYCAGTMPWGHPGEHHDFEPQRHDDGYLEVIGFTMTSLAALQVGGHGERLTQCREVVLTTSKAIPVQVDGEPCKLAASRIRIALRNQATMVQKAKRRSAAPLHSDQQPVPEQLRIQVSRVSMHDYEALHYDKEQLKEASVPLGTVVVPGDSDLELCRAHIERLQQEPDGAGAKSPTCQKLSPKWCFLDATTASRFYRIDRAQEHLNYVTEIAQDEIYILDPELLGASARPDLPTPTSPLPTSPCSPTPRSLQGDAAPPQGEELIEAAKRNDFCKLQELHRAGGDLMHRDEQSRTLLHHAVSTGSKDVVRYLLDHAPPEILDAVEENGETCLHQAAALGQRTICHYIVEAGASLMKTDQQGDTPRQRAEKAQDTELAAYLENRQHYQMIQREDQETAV

An IC50 of 16 nM was found for `NC[C@@H]1CCCN(c2c(NC(=O)c3ccn(CC(F)F)n3)ccc(Oc3ccccc3F)c2C(F)(F)F)C1` [US20240043403, Example 1] in this work.
